# Laboratory results as given in patent EP1862466A2, “Arrays with cleavable linkers” (THE SCRIPPS RESEARCH INSTITUTE, priority 2004, dated 2006).
# What was measured:
# 2G12 antibody [1] = assay: 2G12 binding study on cleavable linker glycan array in microtiter plates (Kd); design: species or system human; settings: binding to 2G12 antibody
# Procedure: Cleavable Linker Glycan Array in Microtiter Plates: Further experiments were performed using glycans immobilized within microtiter wells with the cleavable triazole linkers described in Example 7 as shown in FIG. 11.
# 2G12 Binding: After washing with QH2O, wells were blocked with 10 mM HEPES buffer, pH 7.5/150 mM NaCl buffer (200 µL) containing 0.1% Tween-20 over 1 h at 4 °C. The buffer was then removed and 2G12 (17 µg/mL PBS buffer; 200 µL) was incubated in the well over 1 h at 4°C. Wells were then washed with PBS buffer (3×; 200 µL) and fluorescein-conjugated Goat Anti-Human IgG antibody (14 µg/mL PBS buffer; 200 µL) was incubated in the well over 1 h in the dark at 4 °C. Wells were then washed with PBS buffer (3×; 200 µL) and fluorescence was measured with an excitation wavelength of 485 nm and emission wavelength of 535 nm.
# Further studies were performed using a cleavable linker array to clarify the types of mannose-containing glycans bound by the 2G12 anti-HIV antibodies. […] The results of a binding study using increasing amounts of labeled Manα1,2Manα1,3Manα1,2 Manα1,6Man glycan with a constant amount of 2G12 antibody are shown in FIG. 16.
# β3GlcNAcT = β3GlcNAcT acceptor specificity (relative enzyme activity); format: biochemical, N. meningitidis; settings: substance used as acceptor substrate; Galβ(1-4)Glc = 100
# From the text: The inventors have previously cloned and characterized the bacterial N. meningitidis enzymes β4GalT-GalE and β3GlcNAcT. Blixt, O.;Brown, J.;Schur, M.;Wakarchuk, W. and Paulson, J. C., J. Org. Chem. 2001, 66, 2442-2448; Blixt, O.;van Die, I.;Norberg, T. and van den Eijnden, D. H., Glycobiol. 1999, 9, 1061-1071. β4GalT-GalE is a fusion protein constructed from β4GalT and the uridine-5'-diphospho-galactose-4'-epimerase (GalE) for in situ conversion of inexpensive UDP-glucose to UDP-galactose providing a cost efficient strategy.
# Both enzymes, β4GalT-GalE and β3GlcNAcT, were over expressed in E. coli AD202 in a large-scale fermentor (100 L). Bacteria were cultured in 2YT medium and induced with iso-propyl-thiogalactopyranoside (IPTG) to ultimately produce 8-10 g of bacterial cell paste / L cell media. The enzymes were then released from the cells by a microfluidizer and were solubilized in Tris buffer (25 mM, pH 7.5) containing manganese chloride (10 mM) and Triton X (0.25%) to reach enzymatic activities of about 50 U/L and 115 U/L of cell culture β4GalT-GalE and β3GlcNAcT, respectively.
# The structures of these disaccharides are provided below. [drawing 23] [drawing 24] [drawing 25] [drawing 26]
# Adding the hydrophobic para-nitrophenyl ring as an aglycon to the reducing end of the acceptors enhanced the activity of the enzyme up to 10 fold (compare 4 with 5 and 6 with 7). The increase in the enzyme activity by adding a hydrophobic aglycon to the acceptor sugar, though to the lesser extent, has also been shown for β4GalT (compare 12 with 13,14). The relaxed substrate specificity of these enzymes makes them very useful for preparative synthesis of various carbohydrate structures, including poly-N-acetyllactosamines. Table 4. Selected β4GalT-GalE and β3GlcNAcT Specificity Data
# 2G12 anti-HIV antibody = assay: 2G12 binding to glycan array printed on glass slide; design: species or system human; settings: for binding of 2G12 antibodies (in words): glycan array, initial experiments; for Rel. spec. (relative binding activity of 2G12): glass-slide glycan array, 2G12 pre-complexed with secondary anti-IgG-FITC
# Procedure: Construction of a glycan array printed on a glass slide: The library of carbohydrate structures was obtained through chemical and chemo-enzymatic synthesis as described above, as well as natural sources. This compound library contained a N-hydroxy succinimide (NHS)-reactive primary amino group, which was printed on a commercial NHS-activated glass surface (Accelr8 Technology Corporation, Denver, CO) using a microarray gene printer (TSRI).
# Each glycan type was printed (≈0.5nL/spot) at various concentrations (10-100 µM) and each concentration in a replicate of six. Slides were further incubated with ethanolamine buffer to deactivate remaining NHS functional groups.
# The 2G12 antibody was pre-complexed (for 10 min) with secondary human anti-IgG-FITC (2:1, 20µg/mL) prior to application to the glycan array. After incubation with the 2G12 antibodies, the array was washed by dipping the slide in buffer and water.
# 2G12 antibody [2] = assay: Carbohydrate microarray analysis, microtiter-based, Scatchard plot (Kd); format: binding, human; settings: for Kd: oligomannose immobilized as azide derivative on cleavable linker in microtiter plate, fluorescent secondary antibody
# Procedure: Carbohydrate microarray analysis. Ninety-six well NHS-coated microtiter plates (NoAb Biodiscoveries) were treated with 200 µL of a 1 mM methanolic solution of the amino-functionalized disulfide and alkyne containing linker (scheme V) containing 5 % diisopropylethylamine (DIEA) and incubated overnight at 4°C. The microtiter plate was then washed with 2 x 200 µL methanol and 2 x 200 µL water. Next, 200 µL solutions of azido-functionalized oligomannose derivatives 21-25 at varying concentrations from 0 to 500 µM in 5 % DIEA / methanol were introduced. A sprinkle of copper (I) iodide was added and the contents were allowed to react overnight at 4°C. The next day, the contents were removed and the plates were washed with 2 x 200 µL methanol and 2 x 200 µL water. The plates were then blocked with 0.1 % Tween20 solution in HEPES buffer pH 7.5 at 4 °C for 1 hour and then washed with 3 x 200 µL HEPES buffer. Next, 200 µL of a 1 µg/mL solution of 2G12 antibody in 0.1 % Tween20 / PBS buffer was added to the wells for a 1 hour incubation at 4 °C and then washed with 2 x 200 µL PBS buffer. At this point, 200 µL of FITC-tagged goat anti-human IgG antibody (10 µg/mL in PBS, Cal Biochem) was added for 1 hour at 4 °C, and the wells were then washed with 2 x 200 µL PBS buffer. Detection of the FITC-tagged secondary antibody was performed in 200 µL water using a fluorescence plate reader. The resulting data yielded the oligomannose-2G12 binding isotherms and Scatchard plot analysis was implemented in the determination of dissociation constants. Adams et al. (2004) Chem. Biol. 11: 875-81.
# Overall, many of the oligomannose derivatives can compete for binding of Man9GlcNAc2, and, therefore, may serve as building blocks for potential immunogens to elicit 2G12-like antibodies. Carbohydrate Microarray Analysis. Previous studies by the inventors using covalent microtiter plates with a panel of carbohydrate epitopes for interaction with 2G12 involved converting the amine-containing oligomannoses 4, 5, 7, 8 and 9 to the corresponding azide derivatives 21, 22, 23, 24 and 25. These derivatives were then covalently attached to a microplate-immobilized cleavable linker via the Cu (I)-catalyzed 1,3-dipolar cycloaddition reaction (FIG. 11B). Kd values for the interaction of 2G12 with oligomannoses 4, 5, 7, 8, 9 (Table 9) were determined using a microtiter-based assay with detection via a fluorescent secondary antibody (see Bryan et al.(2004) J. Am. Chem. Soc. 126, 8640-41). Table 9: The Kd values of oligomannoses 1 and 4, 5, 7, 8, 9 binding to 2G12, as determined by carbohydrate microarray analysis.
compound,measurement,setting,value
"Manα1,2Manα1,3Manα1,2 Manα1,6Man",Kd,2G12 antibody [1],0.1 µM
"Galβ(1-4)GlcNAc [Acceptor 6, reference compound]",Relative enzyme activity (%) β(1-3)GlcNAcT-activity,β3GlcNAcT,7-8%
Man-8#aa Man8-aminoacid [Glycan 144],binding of 2G12 antibodies (in words),2G12 anti-HIV antibody,Binding was observed
O=[N+]([O-])c1ccc(O[C@@H]2OC(CO)[C@@H](O[C@@H]3OC(CO)[C@H](O)[C@H](O)C3O)[C@H](O)C2O)cc1 (stereo partly shown) [Compound 5],Relative enzyme activity (%) β(1-3)GlcNAcT-activity,β3GlcNAcT,945%
same,Kd,2G12 antibody [2],0.1 µM
"Manα1,2Manα1,2Manα1,3(Manα1,2Man1,2Man1.6)Man",Kd,2G12 antibody [1],0.7 µM
CC(=O)N[C@H]1C(O)O[C@H](CO)[C@@H](O[C@@H]2O[C@H](CO)[C@H](O)[C@H](O)[C@H]2O)[C@@H]1O (stereo partly shown) [Compound 6],Relative enzyme activity (%) β(1-3)GlcNAcT-activity,β3GlcNAcT,7%
"Manα 1,2Manα1 ,2Manα1 1,3(Manα1,2Man1,3 (Manα1.2Manα1 ,2Manα 1.6) )Man",Kd,2G12 antibody [1],1 µM
"OC[C@H]1O[C@@H](O[C@H]2[C@H](O)[C@@H](O)[C@H](O)O[C@@H]2CO)[C@H](O)[C@@H](O)[C@H]1O [Acceptor 4, Galβ(1-4)Glc, reference compound]",Relative enzyme activity (%) β(1-3)GlcNAcT-activity,β3GlcNAcT,100%
Man-9#aa Man9-aminoacid [Glycan 145],binding of 2G12 antibodies (in words),2G12 anti-HIV antibody,smaller level of binding
NCCCO[C@H]1O[C@H](CO[C@H]2O[C@H](CO)[C@@H](O)[C@H](O)[C@@H]2O[C@H]2O[C@H](CO)[C@@H](O)[C@H](O)[C@@H]2O[C@H]2O[C@H](CO)[C@@H](O)[C@H](O)[C@@H]2O)[C@@H](O)[C@H](O[C@H]2O[C@H](CO)[C@@H](O)[C@H](O)[C@@H]2O)[C@@H]1O [Glycan 138],Rel. spec. (relative binding activity of 2G12),2G12 anti-HIV antibody,"+++ (+++ >25,000)"
NCCCO[C@H]1O[C@H](CO)[C@@H](O)[C@H](O[C@H]2O[C@H](CO)[C@@H](O)[C@H](O)[C@@H]2O[C@H]2O[C@H](CO)[C@@H](O)[C@H](O)[C@@H]2O[C@H]2O[C@H](CO)[C@@H](O)[C@H](O)[C@@H]2O)[C@@H]1O [Glycan 135],Rel. spec. (relative binding activity of 2G12),2G12 anti-HIV antibody,"+++ (+++ >25,000)"
NCCCCCO[C@H]1O[C@H](CO)[C@@H](O)[C@H](O[C@H]2O[C@H](CO)[C@@H](O)[C@H](O)[C@@H]2O[C@H]2O[C@H](CO)[C@@H](O)[C@H](O)[C@@H]2O[C@H]2O[C@H](CO)[C@@H](O)[C@H](O)[C@@H]2O)[C@@H]1O [Oligomannose 4],affinity for 2G12 antibodies (in words),2G12 antibody [2]; microtiter plate array,greatest affinity
OCC1O[C@@H](O)C(O)[C@@H](O)[C@@H]1O[C@@H]1OC(CO)[C@H](O)[C@H](O)C1O (stereo partly shown) [Compound 4],Relative enzyme activity (%) β(1-3)GlcNAcT-activity,β3GlcNAcT,100%
same,Kd,2G12 antibody [2],0.1 µM
NCCCO[C@H]1O[C@H](CO[C@H]2O[C@H](CO)[C@@H](O)[C@H](O)[C@@H]2O[C@H]2O[C@H](CO)[C@@H](O)[C@H](O)[C@@H]2O)[C@@H](O)[C@H](O[C@H]2O[C@H](CO)[C@@H](O)[C@H](O)[C@@H]2O[C@H]2O[C@H](CO)[C@@H](O)[C@H](O)[C@@H]2O)[C@@H]1O [Glycan 136],Rel. spec. (relative binding activity of 2G12),2G12 anti-HIV antibody,"+++ (+++ >25,000)"
